Reference: patent US9675694B2, “Polycyclic agents for the treatment of respiratory syncytial virus infections” (Biota Scientific Management Pty Ltd., priority 2006, dated 2017)

tested on: RSV A2; assay: RSV antiviral cytopathic effect (CPE) assay, MTT readout; format: cell-based; conditions: human respiratory syncytial virus, HEp-2, 120 h; HEp2 cells infected with RSV A2, moi ~0.01, 5 days; compounds of Table 2; read-out: Activity Range (EC50, RSV A2 antiviral)
Procedure: Biological Data Method P: RSV Antiviral Assay Protocol
Compounds of the invention were tested for their antiviral activity against respiratory syncytial virus. Cytopathic effect (CPE) assays were performed essentially as described in the literature (see for example Watanabe et al, 1994, J. Virological Methods, 48:257). Serial dilutions of the test compounds were made in 96 well plates. HEp2 cells (1.0×10^4 cells/well) were infected with RSV at a low multiplicity of infection (e.g. RSV A2 at an moi of ˜0.01) and added to plates to assess antiviral activity. Uninfected HEp2 cells were used to assess compound cytotoxicity. Assays were incubated for 5 days at 37° C. in a 5% CO2 atmosphere. The extent of CPE was determined via metabolism of the vital dye 3-(4, 5-dimethylthiaxol-2-yl)-2,5-diphenyltetrazolium bromide (MTT). MTT (1 mg/ml) was added to each well and plates incubated for 2 hours incubation at 37° C. Wells were aspirated, iso-propanol (200 μL) was added and absorbance values read at 540/690 nm. Compound concentrations that inhibited CPE by 50% (EC50) and developed cytotoxicity (CC50) were calculated using non-linear regression analysis.

Row | SMILES | EC50
1 | O=C1c2ccccc2CC2(c3ccc(Cl)cc3)N1CCN2C(=O)c1sccc1Cl (stereo not drawn) [Compound 1-019] | 250 to 1000 nM
2 | O=C(NCCc1ccccc1)N1CCN2C(=O)c3cccnc3CC12c1ccc(Cl)cc1 (stereo not drawn) [Compound 1-015] | 250 to 1000 nM
3 | O=C(c1csc(-c2cccnc2)n1)N1CCN2C(=O)c3ccccc3CC12c1ccccc1 (stereo not drawn) [Compound 1-002] | 250 to 1000 nM
4 | O=C(c1ccc(F)nc1)N1CCN2C(=O)c3ccccc3CC12c1ccc(Cl)cc1 (stereo not drawn) [Compound 1-007] | 1000 to 5000 nM
5 | O=C(c1ccc(F)cc1)N1CCN2C(=O)c3ncccc3CC12c1ccc(Cl)cc1 (stereo not drawn) [Compound 1-109] | 1000 to 5000 nM
6 | O=C(c1cccnc1)N1CCN2C(=O)c3ccc(F)cc3CC12c1ccc(Cl)cc1 (stereo not drawn) [Compound 1-083] | 250 to 1000 nM
7 | O=C(c1ccc(F)cc1)N1CCN2C(=O)c3cccc(F)c3CC12c1ccc(Cl)cc1 (stereo not drawn) [Compound 1-073] | 250 to 1000 nM
8 | O=C(c1ccc(F)cc1)N1CCN2C(=O)c3ccccc3CC12c1ccccc1 (stereo not drawn) [Compound 1-001] | 250 to 1000 nM
9 | O=C(c1cccs1)N1CCN2C(=O)c3cccnc3CC12c1ccc(Cl)cc1 (stereo not drawn) [Compound 1-101] | < 250 nM
10 | Cn1cc(C(=O)N2CCN3C(=O)c4ccccc4CC32c2ccc(Cl)cc2)c(C(F)(F)F)n1 (stereo not drawn) [Compound 1-029] | 250 to 1000 nM
11 | O=C(c1cccnc1)N1CCN2C(=O)c3ccccc3CC12c1ccc(Cl)cc1 (stereo not drawn) [Compound 1-008, 10a-(4-Chlorophenyl)-1-(pyridine-3-carbonyl)-2,3,10,10a-tetrahydro-1H-imidazo[1,2-b]isoquinolin-5-one] | 1000 to 5000 nM
12 | O=C(c1ccoc1)N1CCN2C(=O)c3ccncc3CC12c1ccc(Cl)cc1 (stereo not drawn) [Compound 1-010] | 250 to 1000 nM
13 | O=C(CNS(=O)(=O)c1ccc(F)cc1)N1CCN2C(=O)c3ccccc3CC12c1ccc(Cl)cc1 (stereo not drawn) [Compound 1-079, N-{2-[10a-(4-Chlorophenyl)-5-oxo-2,3,10,10a-tetrahydro-5H-imidazo[1,2-b]isoquinolin-1-yl]-2-oxoethyl}-4-fluorobenzenesulfonamide] | 250 to 1000 nM
14 | O=C(c1cccnc1)N1CCN2C(=O)c3cccnc3CC12c1ccc(Cl)cc1 (stereo not drawn) [Compound 1-014] | 1000 to 5000 nM
15 | O=C(c1cccnc1)N1CCN2C(=O)c3ccccc3CC12c1ccccc1 (stereo not drawn) [Compound 1-003] | 250 to 1000 nM
16 | O=C(c1ccoc1)N1CCN2C(=O)c3cccnc3CC12c1ccc(Cl)cc1 (stereo not drawn) [Compound 1-043] | < 250 nM
17 | CCC(=O)N1CCN2C(=O)c3ccccc3CC12c1ccc(Cl)cc1 (stereo not drawn) [Compound 1-077] | 1000 to 5000 nM
18 | O=C(c1ccoc1)N1CCN2C(=O)c3cccc(F)c3CC12c1ccc(Cl)cc1 (stereo not drawn) [Compound 1-071] | < 250 nM
19 | O=C(c1ccc(F)cc1)N1CCN2C(=O)c3ccccc3CC12c1ccc(Cl)cc1 (stereo not drawn) [Compound 1-005] | > 5000 nM
20 | O=C(c1ccno1)N1CCN2C(=O)c3ccccc3CC12c1ccc(Cl)cc1 (stereo not drawn) [Compound 1-025] | 1000 to 5000 nM
21 | COc1ccc(CC(=O)N2CCN3C(=O)c4ccccc4CC23c2ccc(Cl)cc2)cc1 (stereo not drawn) [Compound 1-069] | 250 to 1000 nM
22 | Cn1cc(C(=O)N2CCN3C(=O)c4cccc(F)c4CC23c2ccc(Cl)cc2)c(C(F)(F)F)n1 (stereo not drawn) [Compound 1-087] | < 250 nM
23 | O=C(Cc1ccccn1)N1CCN2C(=O)c3ccccc3CC12c1ccc(Cl)cc1 (stereo not drawn) [Compound 1-066] | 1000 to 5000 nM
24 | O=C(c1ccoc1)N1CCN2C(=O)c3ccccc3CC12c1ccc(Cl)cc1 (stereo not drawn) [Compound 1-006] | < 250 nM
